# Literature values, collected in patent US8119691B2, “Method for treating airway hyper-responsiveness with lipoxin analogs” (National Institutes of Health (NIH), priority 2001, dated 2012).
# Key:
# [1] = target: T1, recombinant cysLT1 receptors (Homo sapiens, UniProt Q9Y271); settings: CHO cells, in vitro (ref. 12); cited from earlier work
# T1 construct: host or cells: Chinese hamster ovary cells (recombinant expression)
# T1 sequence (Q9Y271 1-337): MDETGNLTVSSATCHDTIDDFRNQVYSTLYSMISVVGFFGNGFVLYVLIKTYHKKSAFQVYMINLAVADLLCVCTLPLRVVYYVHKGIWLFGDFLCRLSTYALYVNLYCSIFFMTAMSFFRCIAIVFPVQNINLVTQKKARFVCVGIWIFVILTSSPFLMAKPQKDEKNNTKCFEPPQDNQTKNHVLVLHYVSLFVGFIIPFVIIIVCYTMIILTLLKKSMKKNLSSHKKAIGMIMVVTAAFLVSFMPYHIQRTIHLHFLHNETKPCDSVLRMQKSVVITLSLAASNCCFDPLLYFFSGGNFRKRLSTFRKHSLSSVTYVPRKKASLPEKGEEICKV
# human asthmatics = settings: native LXA4 given to human asthmatics (ref. 22); cited from earlier work
# airway smooth muscle = settings: in vitro (ref. 23); cited from earlier work
# eosinophil = settings: cited from earlier work
smiles,measurement,setting,value
"CCCCC[C@H](O)/C=C/C=C\C=C\C=C\[C@@H](O)[C@@H](O)CCCC(=O)O [LXA4, Lipoxin A4]",competition for binding at LTD4 recognition sites and recombinant cysLT1 receptors,[1],compete for binding with high affinity at LTD4 recognition sites
same,LTC4-stimulated airway hyper-responsiveness,human asthmatics,inhibits LTC4-stimulated airway hyper-responsiveness
same,LTD4-initiated constriction of airway smooth muscle,airway smooth muscle,blocks LTD4-initiated constriction of airway smooth muscle in vitro
same,eosinophil chemotaxis,eosinophil,directly inhibits eosinophil chemotaxis
